The experiment has as its target sigma receptors. Description: Inhibition of 3H-DTG binding to sigma receptors in rat brain in vitro. To be noted: 2 nM 3H-DTG, rat brain without cerebellum, 25° C., 20 min. As to the method:
INHIBITION OF 3H-DTG BINDING TO SIGMA RECEPTORS IN RAT BRAIN IN VITRO
By this method the inhibition by drugs of the binding of 2 nM ^3 H-DTG (1,3,di-o-tolyl guanidine) to sigma receptors in homogenates or membranes from rat brain without cerebellum is determined in vitro as modified from Weber et al. Proc. Natl. Acad. Sci. 1986, 83,8784.
Homogenate: Rats (150-250 g) are decapitated and the brains (without cerebellum) quickly removed and placed on ice, weighed and homogenized in 100 vol ice-cold (0° C.) 50 mM Tris-buffer (pH 7.7) in an ethanol rinsed glass/teflon homogenizer at 0° C. and kept on ice until use.
P2-membranes: Brains are homogenized in 10 vol 0.32 M sucrose in an ethanol rinsed glass/teflon homogenizer with 10 strokes up and down. The homogenate is centrifuged for 10 min at 900×gm at 4° C. The supernatant is decanted and centrifuged for 20 min at 50,000 gm at 4° C. The resulting pellet is resuspended in 10 vol ice-cold […] Tris-buffer (pH 7.7) and incubated for 30 min. at 37° C. The membrane suspension is then centrifuged for further 20 min. at 50,000 gm at 4° C. The pellet is resuspended in 50 vol. of ice-cold Tris-buffer and used immediately.
0.5 ml 50 mM Tris-buffer (pH 7.7), 0.25 ml displacer (6×100 μM DTG, 6× [test compound], or Tris-buffer), and 0.25 ml 6×2 nM. ^3 H-DTG are mixed into 5 ml s plastic test tubes and kept at 4° C. until use. The binding reaction is initiated by mixing 0.5 ml tissue suspension into this solution and incubate at 25° C. for 20 min. Glass fiber filters (Whatman GF/B) are placed on the filter machine which is then closed tightly. Just before filtration vacuum is applied, and the filters washed with 0.1% PEI solution from a spray bottle followed by one wash with Tris-buffer.
The binding reaction is stopped by filtration of the assay mixture at reduced pressure (750 mbar) followed by further 3 washes with 5 ml ice-cold Tris-buffer. The filters are then placed in counting vials and 4 ml scintillation solution added. The vials are counted in a Beckmann scintillation counter.
50 mM Tris-buffer pH 7.7: 7.38 g Trizma--7.7 plus distilled H2 O ad 1 liter. 100 ml 10% polyethylenimine (PEI): 100 ml dest. H2 O is added to approx. 20 g 50% PEI which is solubilized by stirring and heating. Diluted (1+99) before use. 6×2 nM ^3 H-DTG: The exact volume depends on the actual concentration of the batch, but is made as close as possible to 12 nM. The containers for the radioactive solution is rinsed in 96% ethanol before use.
^3 H-DTG was obtained from NEN Research Products, Du Pont Denmark. Specific activity 62.3 Ci/mmol.
The known sigma receptor ligands BMY 14802 and rimcazole were included in the test for comparison purposes.

`c1ccc(CCCCN2CCC3(CC2)SCc2ccccc23)cc1` [Compound 2d, 1'-(4-Phenyl-1-butyl)spiro[benzo[c]thiophene-1(3H),4'-piperidine]] had an IC50 of 0.77 nM.

Consider `Cc1ccc2scc(CCCCN3CCC4(CC3)OCc3ccccc34)c2c1` [Compound 10c, 1'-(4-(5-Methylbenzo[b]thiophen-3-yl)-1-butyl)spiro[isobenzofuran-1(3H),4'-piperidine]], for which the IC50 was determined as 0.35 nM. Take `Fc1ccc2c(c1)c(CCCCN1CCC3(CC1)OCc1ccccc13)cn2-c1ccsc1` [Compound 9j, 1'-[4-[5-Fluoro-1-(3-thienyl)-3-indolyl]-1-butyl]-spiro[isobenzofuran-1(3H),4'-piperidine]]: the IC50 amounted to 0.11 nM.

For `Fc1ccc2occ(CCCN3CCC4(CC3)OCc3ccccc34)c2c1` [Compound 15, 1'-[3-(5-Fluorobenzofuran-3-yl)-1-propyl)spiro[isobenzofuran-1(3H) ,4'-piperidine]], the IC50 amounted to 0.42 nM. Turning to `c1ccc(Cn2cc(CCCCN3CCC4(CC3)OCc3ccccc34)c3ccccc32)cc1` [Compound 2hh, 1'-[4-(1-Benzyl-3-indolyl)-1-butyl]-spiro[isobenzofuran-1(3h),4'-piperidine]], the IC50 came to 0.02 nM. To `Fc1ccc(C2CCN(CCCCc3c[nH]c4cc(Cl)c(Cl)cc34)CC2)cc1` [Compound 2ee, 5,6-Dichloro-3-[4-(4-(4-fluorophenyl)-1-piperidyl)-1-butyl]-indole] belongs 1 nM; to `Fc1ccc(-n2cc(OCCN3CCC4(CC3)OCc3ccccc34)c3cc(Cl)ccc32)cc1` [Compound 14a, 1'-[2-[5-Chloro-1-(4-fluorophenyl)-3-indolyloxy]-1-ethyl]spiro[isobenzofuran-1(3H)piperidine]], 24 nM. The figure for `CSCCCN1CCC2(CC1)OCc1ccccc12` [Compound 2n, 1'-(3-Methylthio-1-propyl)spiro[isobenzofuran-1(3H),4'-piperidine]] is 6 nM. Regarding `Fc1ccc2occ(COCCN3CCC4(CC3)OCc3ccccc34)c2c1` [Compound 35b, 1'-[2-(5-Fluorobenzofuran-3-ylmethyloxy)-1-ethyl]spiro[isobenzofuran-1(3H),4'-piperidine]], the half-inhibitory concentration (IC50) is 2.8 nM. To `c1ccc2c(c1)COC21CCN(CCCCC2CNc3ccccc32)CC1` (stereo not shown) [Compound 13b, 1'-[4-(2,3-Dihydro-3-indolyl)-1-butyl]spiro[isobenzofuran-1(3H),4'-piperidine]] belongs 1 nM.

For the compound `Fc1ccc(-n2cc(OCCCN3CCC4(CC3)OCc3ccccc34)c3cc(Cl)ccc32)cc1` [Compound 8c], the IC50 came out at 0.66 nM. As to `c1ccc(OCCCN2CCC3(CC2)OCc2ccccc23)cc1` [Compound 2k, 1'-(3-Phenoxy-1-propyl)spiro[isobenzofuran-1(3H),4'-piperidine]], the IC50 stood at 0.19 nM. The figure for `Fc1ccc(-n2cc(OCCCN3CCC4(CC3)OCc3ccccc34)c3ccccc32)cc1` [Compound 8a, 1'-[3-[1-(4-Fluorophenyl)-3-indolyloxy]-1-propyl]spiro[isobenzofuran-1(3H),4'-piperidine]] is 0.21 nM; for `OC(CCCN1CCC2(CC1)OCc1ccccc12)C1CCCCC1` (stereo not shown) [Compound 26c, 1'-(4-Cyclohexyl-4-hydroxy-1-butyl)spiro[isobenzofuran-1(3h),4'-piperidine]] it is 0.14 nM. `c1ccc2c(c1)COCC21CCN(CCCCC2CNc3ccccc32)CC1` (stereo not shown) [Compound 13c, 1'-[4-(2,3-Dihydro-3-indolyl)-1-butyl]spiro[1H-2-benzopyran-4(3H) ,4'-piperidine]] came in with an IC50 of 4.8 nM.

`O=S1(=O)CC(CCCCN2CCC3(CC2)OCc2ccccc23)c2ccccc21` (stereo not shown) [Compound 33, 1'-[4-(2,3-Dihydro-benzo[b]thiophen-3-yl)-1-butyl]spiro[isobenzofuran-1(3H),4'-piperidine]-S,S-dioxide] gave an IC50 of 0.95 nM.

Consider `c1ccc2c(c1)COCC21CCN(CCCCCc2c[nH]c3ccccc23)CC1` [Compound 2x, 1'-[5-(3-Indolyl)-1-pentyl]-spiro[1H-2-benzopyran-4(3H),4'-piperidine]], for which the IC50 is 1.6 nM. For `c1ccc(CCCCCN2CCC3(CC2)OCc2ccccc23)cc1` [Compound 4e, 1'-(5-Phenyl-1-pentyl)-spiro[isobenzofuran-1 (3h),4'-piperidine]], the IC50 was 0.2 nM. The figure for `Fc1ccc(-n2cc(CCCCN3CCC(c4cccc(C(F)(F)F)c4)CC3)c3ccccc32)cc1` [Compound 9t, 1-(4-Fluorophenyl)-3-[4-(4-(3-trifluoromethylphenyl)-1-piperidyl)-1-butyl]indole] is 3.2 nM; for `CS(=O)(=O)n1cc(CCCCN2CCC3(CC2)OCc2ccccc23)c2ccccc21` [Compound 6a, 1'-(4-(1-Methanesulfonyl-3-indolyl)-1-butyl)spiro[isobenzofuran-1(3 H),4'-piperidine]] it is 0.05 nM; for `c1ccc2c(c1)COC21CCN(CCCCc2nsc3ccccc23)CC1` [Compound 22, 1'-(4-(1,2-Benzisothiazol-3-yl)-1-butyl)spiro[isobenzofuran-1(3H),4'-piperidine]] it is 0.05 nM. For `c1ccc2c(c1)COC21CCN(CCCCc2cn(-c3ccoc3)c3ccccc23)CC1` [Compound 5e, 1'-[4-[1-(3-Furanyl)-3-indolyl]-1-butyl]spiro[isobenzofuran-1(3H),4'-piperidine]], the IC50 is 4.7 nM. Consider `c1ccc2c(c1)COC21CCN(CCCCc2noc3ccccc23)CC1` [Compound 19a, 1'-(4-(1,2-Benzisoxazol-3-yl)-1-butyl)spiro[isobenzofuran-1(3H) ,4'-piperidine]], for which the IC50 is 0.08 nM.

Compound `c1ccc(CCCCN2CCC3(CC2)OCc2ccccc23)cc1` [Compound 2a, 1'-(4-Phenyl-1-butyl)spiro[isobenzofuran-1(3H),4'-piperidine]] registered a concentration for half-maximal inhibition (IC50) of 0.25 nM. `COc1ccccc1C1CCN(CCCCC2CNc3ccccc32)CC1` (stereo not shown) [Compound 13d, 2,3-Dihydro-3-[4-(4-(2-methoxyphenyl)-1-piperidinyl)-1-butyl]indol] displayed an IC50 of 2.1 nM. On to `CN(C)CCn1cc(CCCCN2CCC3(CC2)OCc2ccccc23)c2ccccc21` [Compound 36, 1'-[4-(1-(2-Dimethylamino-1-ethyl)-3-indolyl)-1-butyl]spiro[isobenzofuran-1(3H) ,4'-piperidine]], for which the IC50 stood at 4.5 nM. In the case of `c1ccc(CCCCN2CCC3(CCc4ccccc4O3)CC2)cc1` [Compound 2h, 3,4-Dihydro-1'-(4-phenyl-1-butyl)spiro[2H-1-benzopyran-2,4'-piperidine]], the IC50 turned out to be 1.4 nM. To `c1ccc2c(c1)COC21CCN(CCCCc2csc3ccccc23)CC1` [Compound 10a, 1'-(4-(Benzo[b]thiophen-3-yl)-1-butyl)spiro[isobenzofuran-1(3H),4'-piperidine]] belongs 0.09 nM; to `c1ccc(CCCCN2C3CCC2CC2(C3)OCc3ccccc32)cc1` (stereo not shown) [Compound 2t, 8'-(4-Phenyl-1-butyl)spiro[isobenzofuran-1(3H),3'-8-azabicyclo[3,2,1]octane]], 5.4 nM; to `c1ccc2c(c1)COC21CCN(CCCCc2cn(-c3ccsc3)c3ccccc23)CC1` [Compound 5c, 1'-(4-(1-(3-Thienyl)-3-indolyl]-1-butyl]spiro[isobenzofuran-1(3H),4'-piperidine]], 0.25 nM. The figure for `c1ccc2c(c1)COC21CCN(CCCCc2c[nH]c3ccccc23)CC1` [Compound 2u, 1'-[4-(3-Indolyl)-1-butyl]-spiro[isobenzofuran-1(3H),4'-piperidine]] is 0.41 nM; for `c1ccc2c(c1)COC21CCN(CCCOC2CCCCC2)CC1` [Compound 2j, 1'-(3-Cyclohexyloxy-1-propyl)spiro[isobenzofuran-1(3H),4'-piperidine]] it is 0.07 nM; for `Fc1ccc(C2CCN(CCCCc3cn(-c4ccccc4)c4ccccc34)CC2)cc1` [Compound 9p, 1-Phenyl-3-[4-(4-(4-fluorophenyl)-1-piperidyl)-1-butyl]indole] it is 0.28 nM. In turn, `Fc1ccc(-n2cc(CCCCN3CCC4(CC3)OCc3cccc(F)c34)c3ccccc32)cc1` [Compound 9g, 7-Fluoro-1'-[4-[1-(4-fluorophenyl)-3-indolyl]-1-butyl]spiro[isobenzofuran-1(3H), 4'-piperidine]] showed an IC50 of 4.2 nM.

The term IC50 denotes the concentration at which inhibition is half-maximal. A low value points to greater potency.

(Values after patent US6207677A, “Piperidine derivatives having anxiolytic effect” (H. Lundbeck A/S, priority 1991, dated 2001).)
